“And” between values parts separate entries of the source, which are not always exact repeats. Equal values may be shown once. Inconclusive results and toxic doses are left out.

Our source for the T/C values is PubChem BioAssay AID330 (DTP/NCI, 2004).

The assay relates to P388 leukemia ip, CD2F1 mice, survival T/C. The assay is described as follows: NCI In Vivo Anticancer Drug Screen. Data for tumor model P388 Leukemia (intraperitoneal) in CD2F1 (CDF1) mice. The settings on record: endpoint: median survival time, higher = longer survival. A digest of the protocol: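 Mice carrying the transplanted tumor received test compound or vehicle. Survival was recorded in each group, and the value is the treated-group measurement divided by that of the vehicle-treated control group.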

[1] abbreviates: dose: 12.5 mg/kg/injection, schedule: Q01DX009 (ip), vehicle: Klucel (hydroxypropylcellulose) (HPC).
[2] abbreviates: dose: 25.0 mg/kg/injection, schedule: Q01DX009 (ip), vehicle: Klucel (hydroxypropylcellulose) (HPC).
Where [3] appears, read: dose: 50.0 mg/kg/injection, schedule: Q01DX009 (ip), vehicle: distilled water + Tween-80.
Where [4] appears, read: dose: 100.0 mg/kg/injection, schedule: Q01DX009 (ip), vehicle: saline with Tween-80.
Where [5] appears, read: dose: 50.0 mg/kg/injection, schedule: Q01DX009 (ip), vehicle: Klucel (hydroxypropylcellulose) (HPC).
The mark [6] stands for this setting: dose: 100.0 mg/kg/injection, schedule: Q01DX009 (ip), vehicle: Klucel (hydroxypropylcellulose) (HPC).
The mark [7] stands for this setting: dose: 200.0 mg/kg/injection, schedule: Q01DX009 (ip), vehicle: Klucel (hydroxypropylcellulose) (HPC).
[8] abbreviates: dose: 60.0 mg/kg/injection, schedule: Q01DX005 (ip), vehicle: saline.
Setting [9] is: dose: 120.0 mg/kg/injection, schedule: Q01DX005 (ip), vehicle: saline.
[10] abbreviates: dose: 240.0 mg/kg/injection, schedule: Q01DX005 (ip), vehicle: saline.

`COc1ccc2[nH]cc(C3CCCN4CCCCC34)c2c1` (stereo not given): the T/C runs as follows: (dose: 50.0 mg/kg/injection, schedule: Q01DX005 (ip), vehicle: saline with Tween-80) 101 % of control; (dose: 100.0 mg/kg/injection, schedule: Q01DX005 (ip), vehicle: saline with Tween-80) 99 % of control.

Consider `O=[N+]([O-])c1ccc([S][Pb]([c]2ccccc2)([c]2ccccc2)[c]2ccccc2)cc1`, for which the T/C is, setting by setting: (dose: 6.25 mg/kg/injection, schedule: Q01DX009 (ip), vehicle: Klucel (hydroxypropylcellulose) (HPC)) 100 % of control; under setting [1], 102 % of control; under setting [2], 89 % of control.

`O=S1(=O)C=C(Br)CO1`: the T/C is, setting by setting: (dose: 100.0 mg/kg/injection, schedule: Q04DX003 (ip), vehicle: saline with Tween-80) 106 % of control; (dose: 200.0 mg/kg/injection, schedule: Q04DX003 (ip), vehicle: saline with Tween-80) 106 % of control; (dose: 400.0 mg/kg/injection, schedule: Q04DX003 (ip), vehicle: saline with Tween-80) 97 % of control.

With `CCOC(=O)CON1C(=O)CCC1=O`, the T/C reads like this: (dose: 25.0 mg/kg/injection, schedule: Q01DX005 (ip), vehicle: saline) 102 % of control; (dose: 50.0 mg/kg/injection, schedule: Q01DX005 (ip), vehicle: saline) 102 % of control; (dose: 100.0 mg/kg/injection, schedule: Q01DX005 (ip), vehicle: saline) 100 % of control; (dose: 200.0 mg/kg/injection, schedule: Q01DX005 (ip), vehicle: saline) 105 % of control.

As for `COC(=O)C(NC(=O)OCc1ccccc1)C(C)O` (stereo not given), the T/C (dose: 12.5 mg/kg/injection, schedule: Q01DX009 (ip), vehicle: distilled water + Tween-80) was 90 % of control; the T/C (dose: 25.0 mg/kg/injection, schedule: Q01DX009 (ip), vehicle: distilled water + Tween-80) was 102 % of control; the T/C under setting [3] is 100 % of control; the T/C (dose: 100.0 mg/kg/injection, schedule: Q01DX009 (ip), vehicle: distilled water + Tween-80) is 105 % of control; the T/C (dose: 200.0 mg/kg/injection, schedule: Q01DX009 (ip), vehicle: distilled water + Tween-80) was 94 % of control.

Regarding `CCOc1cnc(CO)o1`, the T/C by setting is: (dose: 100.0 mg/kg/injection, schedule: Q04DX003 (ip), vehicle: saline) 103 % of control; (dose: 200.0 mg/kg/injection, schedule: Q04DX003 (ip), vehicle: saline) 104 % of control; (dose: 400.0 mg/kg/injection, schedule: Q04DX003 (ip), vehicle: saline) 97 % of control.

Regarding `CCCCCCCCCCCCCCCCCCCCCC(=O)Nc1ccn(C2OC(CO)C(O)C2O)c(=O)n1` (stereo not given), the T/C runs as follows: (dose: 1.56 mg/kg/injection, schedule: Q01DX009 (ip), vehicle: saline with Tween-80) 155 % of control; (dose: 3.12 mg/kg/injection, schedule: Q01DX009 (ip), vehicle: saline with Tween-80) 198 % of control and 209 % of control; (dose: 6.25 mg/kg/injection, schedule: Q01DX009 (ip), vehicle: saline with Tween-80) 106 % of control and 206 % of control and 235 % of control; (dose: 12.5 mg/kg/injection, schedule: Q01DX009 (ip), vehicle: saline with Tween-80) 256 % of control and 309 % of control; under setting [4], 195 % of control.

For `O=S1(=O)OCc2ccccc21`, the T/C is, setting by setting: under setting [1], 98 % of control; under setting [2], 100 % of control; under setting [5], 107 % of control; under setting [6], 117 % of control.

Take `COc1ncc[n+]([O-])n1`: the T/C was 103 % of control (dose: 50.0 mg/kg/injection, schedule: Q01DX009 (ip), vehicle: saline with Tween-80); 100 % of control and 108 % of control and 111 % of control under setting [4]; 100 % of control and 102 % of control and 123 % of control (dose: 200.0 mg/kg/injection, schedule: Q01DX009 (ip), vehicle: saline with Tween-80); 93 % of control (dose: 400.0 mg/kg/injection, schedule: Q01DX009 (ip), vehicle: saline with Tween-80).

In the case of `CCCCCCC(=O)Nc1ncc([N+](=O)[O-])s1`, the T/C was 106 % of control under setting [5], 106 % of control under setting [6] and 100 % of control under setting [7].

For the compound `OCC1=CC(O)C2C=COC(C3OC(CO)C(O)C(O)C3O)C12` (stereo not given), the T/C was 103 % of control under setting [8], 102 % of control under setting [9] and 100 % of control under setting [10].

As to `CC1(C)C2=CCC[C@H]2[C@H]2[C@@H](OC(=O)/C=C/c3ccccc3)CC[C@H]21`, the T/C was 100 % of control (dose: 100.0 mg/kg/injection, schedule: Q01DX001 (ip), vehicle: Klucel (hydroxypropylcellulose) (HPC)); 103 % of control (dose: 200.0 mg/kg/injection, schedule: Q01DX001 (ip), vehicle: Klucel (hydroxypropylcellulose) (HPC)); 103 % of control (dose: 400.0 mg/kg/injection, schedule: Q01DX001 (ip), vehicle: Klucel (hydroxypropylcellulose) (HPC)).

Consider `C=C(COCNc1ccc(Cl)cc1Cl)C(=O)O`, for which the T/C is, setting by setting: under setting [5], 105 % of control; under setting [6], 89 % of control; under setting [7], 99 % of control.

On to `CCOC(=O)CC1NC(=O)CNC1=O` (stereo not given), for which the T/C under setting [8] was 100 % of control, the T/C under setting [9] was 101 % of control and the T/C under setting [10] was 100 % of control.

On to `COc1ccc(OC)c(NC(=O)Nc2nccs2)c1`, for which the T/C runs as follows: (dose: 22.5 mg/kg/injection, schedule: Q01DX009 (ip), vehicle: Klucel (hydroxypropylcellulose) (HPC)) 99 % of control; (dose: 45.0 mg/kg/injection, schedule: Q01DX009 (ip), vehicle: Klucel (hydroxypropylcellulose) (HPC)) 100 % of control; (dose: 90.0 mg/kg/injection, schedule: Q01DX009 (ip), vehicle: Klucel (hydroxypropylcellulose) (HPC)) 97 % of control; (dose: 180.0 mg/kg/injection, schedule: Q01DX009 (ip), vehicle: Klucel (hydroxypropylcellulose) (HPC)) 92 % of control.

Take `CN(C)Cc1cccc(CN(C)C)[c]1[Sn]([Br])([c]1ccccc1)[c]1ccccc1`: the T/C reads like this: (dose: 1.56 mg/kg/injection, schedule: Q01DX009 (ip), vehicle: saline) 104 % of control; (dose: 3.12 mg/kg/injection, schedule: Q01DX009 (ip), vehicle: saline) 106 % of control; (dose: 12.5 mg/kg/injection, schedule: Q01DX009 (ip), vehicle: saline) 120 % of control.

Turning to `Cn1c(=O)c2c(ncn2-c2ccc(N)cc2Cl)n(C)c1=O`, the T/C by setting is: (dose: 25.0 mg/kg/injection, schedule: Q01DX005 (ip), vehicle: distilled water + alcohol) 100 % of control; (dose: 50.0 mg/kg/injection, schedule: Q01DX005 (ip), vehicle: distilled water + alcohol) 100 % of control and 101 % of control; (dose: 100.0 mg/kg/injection, schedule: Q01DX005 (ip), vehicle: distilled water + alcohol) 104 % of control; (dose: 200.0 mg/kg/injection, schedule: Q01DX005 (ip), vehicle: distilled water + alcohol) 99 % of control.

On to `COc1ccccc1OCC(O)CNc1ccc(Cl)cc1C(=O)c1ccccc1` (stereo not given), for which the T/C was 103 % of control (dose: 60.0 mg/kg/injection, schedule: Q01DX005 (ip), vehicle: saline with Tween-80); 105 % of control (dose: 120.0 mg/kg/injection, schedule: Q01DX005 (ip), vehicle: saline with Tween-80); 94 % of control (dose: 240.0 mg/kg/injection, schedule: Q01DX005 (ip), vehicle: saline with Tween-80).

For `CC(C)c1ccc(Nc2n[nH]c(=S)s2)cc1`, the T/C runs as follows: (dose: 50.0 mg/kg/injection, schedule: Q01DX005 (ip), vehicle: Klucel (hydroxypropylcellulose) (HPC)) 105 % of control; (dose: 100.0 mg/kg/injection, schedule: Q01DX005 (ip), vehicle: Klucel (hydroxypropylcellulose) (HPC)) 100 % of control; (dose: 200.0 mg/kg/injection, schedule: Q01DX005 (ip), vehicle: Klucel (hydroxypropylcellulose) (HPC)) 99 % of control.

On to `CNC(=O)OCc1c(COC(=O)NC)c(-c2ccc(F)cc2)n(C)c1C`, for which, under setting [3], the T/C is 91 % of control.

Consider `CCO/C([O-])=C(/C(=N/S(=O)(=O)c1ccc(C)cc1)SC)[n+]1ccccc1`, for which the T/C reads like this: (dose: 25.0 mg/kg/injection, schedule: Q04DX002 (ip), vehicle: saline with Tween-80) 100 % of control; (dose: 50.0 mg/kg/injection, schedule: Q04DX002 (ip), vehicle: saline with Tween-80) 99 % of control; (dose: 100.0 mg/kg/injection, schedule: Q04DX002 (ip), vehicle: saline with Tween-80) 99 % of control.

As for `Cc1sc(C)c2c1C[Se]Cc1c(C)sc(C)c1C[Se]C2`, for the setting “dose: 400.0 mg/kg/injection, schedule: Q01DX001 (ip), vehicle: saline with Tween-80”, the T/C was 87 % of control.
